In patent publication US20260250322A1, “NEW PEPTIDES AS SELECTIVE IL-23 RECEPTOR INHIBITORS” (SANOFI, priority 2023, published 2026):
Bridge positions count the residues as written; N and C are the ends. Square brackets hold non-standard residues; d marks the D form. Peptide text beside a SMILES is read from it. 1Nal = N[C@@H](Cc1cccc2ccccc12)C(=O)O; 2Nal = N[C@@H](Cc1ccc2ccccc2c1)C(=O)O; Orn = NCCC[C@H](N)C(=O)O; Aib = CC(C)(N)C(=O)O

Experiments:
human IL-23R = target: T1, human IL-23R (Homo sapiens, UniProt Q5VWK5); test: Human ELISA IL-23/IL-23R binding inhibition; details: human IL-23 coated, recombinant human IL-23R-Fc chimera
T1 sequence (Q5VWK5 24-355 limits assumed): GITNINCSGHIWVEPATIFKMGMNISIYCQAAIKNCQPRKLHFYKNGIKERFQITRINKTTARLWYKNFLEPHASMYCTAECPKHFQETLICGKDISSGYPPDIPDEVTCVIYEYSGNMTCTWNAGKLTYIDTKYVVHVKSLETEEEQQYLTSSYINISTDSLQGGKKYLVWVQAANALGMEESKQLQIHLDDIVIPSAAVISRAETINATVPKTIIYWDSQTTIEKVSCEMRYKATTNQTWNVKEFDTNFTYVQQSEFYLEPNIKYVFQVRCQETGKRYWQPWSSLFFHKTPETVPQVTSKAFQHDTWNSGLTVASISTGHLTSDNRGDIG
Procedure, shortened: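 Plates coated with human IL-23 at 1 μg/ml overnight at 4° C; serially diluted peptides added with recombinant human IL-23R-Fc at 0.1 μg/ml final, 60 min at RT. Bound receptor detected with anti-human IgG1-HRP and a fluorogenic peroxidase substrate.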

[1] = tested on: IL-23 induced STAT3 signaling; test: Inhibition of IL-23 induced STAT3 signaling in HEK-Blue IL-23 cells (SEAP reporter); type: cell-based; details: human IL-23 0.25 ng/ml, read-out: Inhibition of IL-23 induced pSTAT3 (IC50 nM)
Procedure, shortened: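 HEK-Blue IL-23 cells (10,000/well) preincubated 60 min at 37 °C with serially diluted compound, then stimulated overnight with human IL-23 (0.25 ng/ml final). STAT3-driven SEAP in supernatant read with QUANTI-Blue after 45 min at room temperature, OD 620-655 nm; dose-response fitted.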

[2] = Chemical stability (relative purity loss) of peptide compounds in buffer formulations; type: physicochemical
Procedure: Purity of a compound batch was determined through UHPLC/MS prior to chemical stability measurement using Method A.
For stability assessment, the target concentration was 300 μM pure compound. Therefore, solutions from solid samples were prepared in the following buffer systems with a concentration of ~300 µM compound based on the previously determined % purity. The solid samples were obtained by drying down aliquots of a freshly prepared acetonitrile stock solution using a THERMO SPEEDVAC vacuum centrifuge. The dry down time was 3 hours.
The following buffer systems were applied: • Solubility buffer system A) 100 mM phosphate buffer pH 7.4. • Solubility buffer system B) 100 mM phosphate buffer pH 6.5. • Solubility buffer system C) 100 mM HCl pH 1.2.
Prepared solutions were filtered through […] pore size and filled into sterilized glass containers under laminar flow conditions.
[…] After this time course, the samples were centrifuged for 15 min at 2500 RCF. Then 1.5 μl of the undiluted supernatant were analysed with UHPLC-UV.
The chemical stability was rated through the relative loss of purity calculated by the equation:
[(purity after 0 hours at 37° C.)(purity after 24 hours at 37° C.)]/(purity after 0 hours at 37° C.)]*100%.
The purity is calculated as [(peak area peptide)/(total peak area)]*100%.
Buffer composition: 100 mM HCl pH 1.2, 100 mM phosphate buffer pH 6.5, 100 mM phosphate buffer pH 7.4

[3] = pH 6.5 (100 mM phosphate buffer)
[4] = pH 7.4 (100 mM phosphate buffer)

IC50 (human IL-23R) | IC50 [1] | Conc. [mg/ml] 0 h ([2]; pH 1.2 (100 mM HCl)) | Conc. [mg/ml] 24 h 37° C. ([2]; pH 1.2 (100 mM HCl)) | Mass Balance [%] 24 h 37° C. ([2]; pH 1.2 (100 mM HCl)) | Relative Purity Loss [%] 24 h 37° C. ([2]; pH 1.2 (100 mM HCl)) | Conc. [mg/ml] 0 h [2, 3] | Conc. [mg/ml] 24 h 37° C. [2, 3] | Mass Balance [%] 24 h 37° C. [2, 3] | Relative Purity Loss [%] 24 h 37° C. [2, 3] | Conc. [mg/ml] 0 h [2, 4] | Conc. [mg/ml] 24 h 37° C. [2, 4] | Mass Balance [%] 24 h 37° C. [2, 4] | Relative Purity Loss [%] 24 h 37° C. [2, 4] | SMILES
2.74 nM | 943 nM | 0.2 mg/mL | 0.2 mg/mL | −2.5% | 26.2% | 0.2 mg/mL | 0.2 mg/mL | 4.1% | −1.4% | 0.2 mg/mL | 0.2 mg/mL | 4.6% | 2.0% | COc1ccc(C[C@@H]2NC(=O)[C@H](C)NC(=O)[C@H](CCC(N)=O)NC(=O)[C@H](Cc3c[nH]c4ccccc34)NC(=O)[C@H]([C@@H](C)O)NC(=O)[C@H](CC(N)=O)NC(=O)[C@H](NC(C)=O)CCCCNC(=O)C[C@@H](C(=O)N[C@@H](CC(N)=O)C(=O)N[C@@H](CC(N)=O)C(N)=O)NC(=O)C(C)(C)NC(=O)[C@H](Cc3cccc4ccccc34)NC2=O)cc1 [compound 8] (Ac-[dK]NTWQAY(Me)[1Nal][Aib]DNN-NH2; lactam 1-10)
1.55 nM | 430 nM | 1.5 mg/mL | 1.1 mg/mL | −3.4% | 23.2% | 1.2 mg/mL | 1.1 mg/mL | −3.6% | 1.1% | 1.4 mg/mL | 1.3 mg/mL | −3.1% | 3.6% | COc1ccc(C[C@@H]2NC(=O)[C@H](CCCNC(=N)N)NC(=O)[C@H](CCC(N)=O)NC(=O)[C@H](Cc3c[nH]c4ccccc34)NC(=O)[C@H]([C@@H](C)O)NC(=O)[C@H](CC(N)=O)NC(=O)[C@H](NC(C)=O)CCCCNC(=O)C[C@@H](C(=O)N[C@@H](CC(N)=O)C(=O)N[C@@H](CC(N)=O)C(N)=O)NC(=O)C(C)(C)NC(=O)[C@H](Cc3ccc4ccccc4c3)NC2=O)cc1 [compound 3] (Ac-[dK]NTWQRY(Me)[2Nal][Aib]DNN-NH2; lactam 1-10)
1.96 nM | 366 nM | 1.6 mg/mL | 1.1 mg/mL | −3.8% | 27.3% | 1.4 mg/mL | 1.3 mg/mL | −1.4% | 0.6% | 1.4 mg/mL | 1.3 mg/mL | −4.8% | 1.4% | COc1ccc(C[C@@H]2NC(=O)[C@H](CCCNC(=N)N)NC(=O)[C@H](CCC(N)=O)NC(=O)[C@H](Cc3c[nH]c4ccccc34)NC(=O)[C@H]([C@@H](C)O)NC(=O)[C@H](CC(N)=O)NC(=O)[C@@H](NC(C)=O)CC(=O)NCCC[C@@H](C(=O)N[C@@H](CC(N)=O)C(=O)N[C@@H](CC(N)=O)C(N)=O)NC(=O)C(C)(C)NC(=O)[C@H](Cc3ccc4ccccc4c3)NC2=O)cc1 [compound 6] (Ac-DNTWQRY(Me)[2Nal][Aib][Orn]NN-NH2; lactam 1-10)
2.47 nM | 850 nM | 1.1 mg/mL | 0.7 mg/mL | −9.6% | 26.5% | 1.5 mg/mL | 1.5 mg/mL | −3.9% | 0.3% | 1.1 mg/mL | 1.0 mg/mL | −2.3% | 4.7% | COc1ccc(C[C@@H]2NC(=O)[C@H](CC(C)C)NC(=O)[C@H](CCC(N)=O)NC(=O)[C@H](Cc3c[nH]c4ccccc34)NC(=O)[C@H]([C@@H](C)O)NC(=O)[C@H](CC(N)=O)NC(=O)[C@H](NC(C)=O)CCCCNC(=O)C[C@@H](C(=O)N[C@@H](CC(N)=O)C(=O)N[C@@H](CC(N)=O)C(N)=O)NC(=O)C(C)(C)NC(=O)[C@H](Cc3cccc4ccccc34)NC2=O)cc1 [compound 7] (Ac-[dK]NTWQLY(Me)[1Nal][Aib]DNN-NH2; lactam 1-10)
